Source: patent US20240270809A1, “ORAL GLP RECEPTOR AGONISTS” (priority 2020, published 2024)
Positions of bridges follow the written chain, without caps; N, C: chain ends. Non-standard residues stand in square brackets, D forms with d. Residues, ends and D or L forms follow the SMILES beside them. *: point of attachment. Malonyl(2,2-Me2,histaminyl) = CC(C)(C(=O)NCCc1cnc[nH]1)C(=O)*; Ala(1H-tetrazol-5-yl) = N[C@@H](Cc1nnn[nH]1)C(=O)O; Nle = CCCC[C@H](N)C(=O)O; Aib = CC(C)(N)C(=O)O

Experiments:
[1] = biological target: T1, human GLP1 receptor (Homo sapiens, UniProt P43220); assay: cAMP accumulation assay, functional agonism of human GLP1 receptor; assay type: cell-based; conditions: HEK cells infected with human GLP1 receptor BacMam virus, HTRF cAMP; for Emax: HEK293, read-out: Human GLP-1R agonist cAMP Emax; for EC50: read-out: Human GLP-1R agonist cAMP pEC50 (converted)
T1 construct: expressed in transfected cells; host or cells: HEK cells, BacMam virus transduction
Method in brief: (§1)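 HEK cells transduced 24 h with human GLP1 or GLP2 receptor BacMam virus, then frozen until use. Agonist stimulation for 45 min at 37 °C in HBSS with 0.5 mM IBMX; cAMP measured by HTRF after lysis.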

[2] = biological target: T2, human GLP2 receptor (Homo sapiens, UniProt O95838); assay: cAMP accumulation assay, functional agonism of human GLP2 receptor; assay type: cell-based; conditions: HEK cells infected with human GLP2 receptor BacMam virus, HTRF cAMP; for Emax: HEK293, read-out: Human GLP-2R agonist cAMP Emax; for EC50: read-out: Human GLP-2R agonist cAMP pEC50 (converted)
T2 construct: expressed in transfected cells; host or cells: HEK cells, BacMam virus transduction
T2 sequence (O95838 1-553): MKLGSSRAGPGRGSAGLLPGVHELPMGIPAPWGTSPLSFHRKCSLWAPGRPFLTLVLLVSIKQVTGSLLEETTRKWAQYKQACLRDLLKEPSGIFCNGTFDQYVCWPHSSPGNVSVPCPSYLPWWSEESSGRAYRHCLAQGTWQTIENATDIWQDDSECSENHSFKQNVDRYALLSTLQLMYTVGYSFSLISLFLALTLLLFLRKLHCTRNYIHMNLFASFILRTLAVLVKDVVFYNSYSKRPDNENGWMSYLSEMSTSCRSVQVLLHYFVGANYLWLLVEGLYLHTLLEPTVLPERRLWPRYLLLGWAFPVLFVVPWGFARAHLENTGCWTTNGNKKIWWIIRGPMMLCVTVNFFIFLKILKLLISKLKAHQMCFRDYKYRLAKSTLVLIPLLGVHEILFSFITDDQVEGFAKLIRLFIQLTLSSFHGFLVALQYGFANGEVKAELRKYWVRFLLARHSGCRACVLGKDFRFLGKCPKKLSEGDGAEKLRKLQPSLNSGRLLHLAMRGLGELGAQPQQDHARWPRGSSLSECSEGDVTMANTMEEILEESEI
Method in brief: as §1

T1 sequence (P43220 24-463): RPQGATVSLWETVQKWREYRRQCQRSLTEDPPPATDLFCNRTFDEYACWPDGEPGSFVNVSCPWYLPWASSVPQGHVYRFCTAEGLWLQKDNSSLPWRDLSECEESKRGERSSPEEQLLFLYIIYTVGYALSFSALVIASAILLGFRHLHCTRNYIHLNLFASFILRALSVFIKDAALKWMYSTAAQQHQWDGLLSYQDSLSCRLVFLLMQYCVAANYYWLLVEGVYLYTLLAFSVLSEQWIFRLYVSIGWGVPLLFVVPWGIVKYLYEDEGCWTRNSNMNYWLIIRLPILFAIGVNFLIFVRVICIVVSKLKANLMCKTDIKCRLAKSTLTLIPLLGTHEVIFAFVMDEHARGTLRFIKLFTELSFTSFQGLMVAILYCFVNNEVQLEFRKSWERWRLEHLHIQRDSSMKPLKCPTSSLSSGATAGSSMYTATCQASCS

Structure (SMILES)	Emax [1]	EC50 [1]	Emax [2]	EC50 [2]
CCCC[C@H](NC(=O)[C@H](CCC(=O)O)NC(=O)[C@@H]1CC(=O)NCCCC[C@H](NC(=O)[C@H](CC(=O)O)NC(=O)C(C)(C)NC(=O)[C@@H](N)Cc2c[nH]cn2)C(=O)N[C@@H](CO)C(=O)N[C@@H](Cc2ccccc2)C(=O)N[C@@H](CO)C(=O)N1)C(=O)N[C@H](Cc1ccccc1)C(=O)N[C@H](C(=O)N[C@H](C(=O)N[C@@H](CC(C)C)C(=O)N[C@@H](CC(=O)O)C(=O)N[C@@H](CC(C)C)C(=O)N[C@@H](CCCCN)C(=O)N[C@@H](C)C(=O)N[C@@H](C)C(=O)N[C@@H](CCCCN)C(=O)N[C@@H](CC(=O)O)C(=O)N[C@@H](Cc1ccccc1)C(=O)N[C@H](C(=O)N[C@@H](CC(N)=O)C(=O)N[C@@H](Cc1c[nH]c2ccccc12)C(=O)N[C@@H](CC(C)C)C(=O)N[C@H](C(=O)N[C@@H](CCC(N)=O)C(=O)N[C@H](C(=O)N[C@@H](CCCCN)C(=O)N[C@H](C(=O)N[C@H](C(=O)N[C@@H](CC(=O)O)C(N)=O)[C@@H](C)O)[C@@H](C)CC)[C@@H](C)O)[C@@H](C)CC)[C@@H](C)CC)[C@@H](C)CC)[C@@H](C)O [Example 84] (H-H[Aib]DKSFSDE[Nle][dF]TILDLKAAKDFINWLIQTKITD-NH2; lactam 4-8; C-terminus assumed)	87.3%	10 nM	103%	0.0501 nM
CCCC[C@H](NC(=O)[C@H](CCC(=O)O)NC(=O)[C@H](CC(=O)O)NC(=O)[C@H](CO)NC(=O)[C@H](Cc1ccccc1)NC(=O)[C@H](CO)NC(=O)CNC(=O)[C@H](CC(=O)O)NC(=O)C(C)(C)NC(=O)[C@@H](N)Cc1c[nH]cn1)C(=O)N[C@H](Cc1ccccc1)C(=O)N[C@H]1CC(=O)NCCCC[C@@H](C(=O)N[C@@H](CCCCN)C(=O)N[C@@H](C)C(=O)N[C@@H](C)C(=O)N[C@@H](CCCCN)C(=O)N[C@@H](CC(=O)O)C(=O)N[C@@H](Cc2ccccc2)C(=O)N[C@H](C(=O)N[C@@H](CC(N)=O)C(=O)N[C@@H](Cc2c[nH]c3ccccc23)C(=O)N[C@@H](CC(C)C)C(=O)N[C@H](C(=O)N[C@@H](CCC(N)=O)C(=O)N[C@H](C(=O)N[C@@H](CCCCN)C(=O)N[C@H](C(=O)N[C@H](C(=O)N[C@@H](CC(=O)O)C(N)=O)[C@@H](C)O)[C@@H](C)CC)[C@@H](C)O)[C@@H](C)CC)[C@@H](C)CC)NC(=O)[C@H](CC(=O)O)NC(=O)[C@H](CC(C)C)NC(=O)[C@H]([C@@H](C)CC)NC1=O [Example 97] (H-H[Aib]DGSFSDE[Nle][dF]DILDKKAAKDFINWLIQTKITD-NH2; lactam 12-16; N-terminus and C-terminus assumed)	96.6%	0.316 nM	101%	0.00316 nM
CCCC[C@H](NC(=O)[C@H](CCC(=O)O)NC(=O)[C@H](CC(=O)O)NC(=O)[C@H](CO)NC(=O)[C@H](Cc1ccccc1)NC(=O)[C@H](CO)NC(=O)CNC(=O)[C@H](CC(=O)O)NC(=O)C(C)(C)NC(=O)[C@@H](N)Cc1c[nH]cn1)C(=O)N[C@H](Cc1ccccc1)C(=O)N[C@H](C(=O)N[C@H](C(=O)N[C@@H](CC(C)C)C(=O)N[C@@H](CC(=O)O)C(=O)N[C@@H](CC(C)C)C(=O)N[C@H]1CCC(=O)NCCCC[C@@H](C(=O)N[C@@H](CC(=O)O)C(=O)N[C@@H](Cc2ccccc2)C(=O)N[C@H](C(=O)N[C@@H](CC(N)=O)C(=O)N[C@@H](Cc2c[nH]c3ccccc23)C(=O)N[C@@H](CC(C)C)C(=O)N[C@H](C(=O)N[C@@H](CCC(N)=O)C(=O)N[C@H](C(=O)N[C@@H](CCCCN)C(=O)N[C@H](C(=O)N[C@H](C(=O)N[C@@H](CC(=O)O)C(N)=O)[C@@H](C)O)[C@@H](C)CC)[C@@H](C)O)[C@@H](C)CC)[C@@H](C)CC)NC(=O)[C@H](C)NC(=O)[C@H](C)NC1=O)[C@@H](C)CC)[C@@H](C)O [Example 98] (H-H[Aib]DGSFSDE[Nle][dF]TILDLEAAKDFINWLIQTKITD-NH2; lactam 17-20; C-terminus assumed)	96%	20 nM	101%	0.00631 nM

Results, then the compound that gave them:

Emax [1]	EC50 [1]	Emax [2]	EC50 [2]	Structure (SMILES)
94.5%	12.6 nM	104%	0.0794 nM	CCCC[C@@H]1NC(=O)[C@H](CCC(=O)O)NC(=O)[C@@H](NC(=O)[C@H](CO)NC(=O)[C@H](Cc2ccccc2)NC(=O)[C@H](CO)NC(=O)CNC(=O)[C@H](Cc2nn[nH]n2)NC(=O)C(C)(C)C(=O)NCCc2c[nH]cn2)CCCCNC(=O)C[C@@H](C(=O)N[C@H](C(=O)N[C@@H](CC(C)C)C(=O)N[C@@H](CC(=O)O)C(=O)N[C@@H](CC(C)C)C(=O)N[C@@H](CCCCN)C(=O)N[C@@H](C)C(=O)N[C@@H](C)C(=O)N[C@@H](CCCCN)C(=O)N[C@@H](CC(=O)O)C(=O)N[C@@H](Cc2ccccc2)C(=O)N[C@H](C(=O)N[C@@H](CC(N)=O)C(=O)N[C@@H](Cc2c[nH]c3ccccc23)C(=O)N[C@@H](CC(C)C)C(=O)N[C@H](C(=O)N[C@@H](CCC(N)=O)C(=O)N[C@H](C(=O)N[C@@H](CCCCN)C(=O)N[C@H](C(=O)N[C@H](C(=O)N[C@@H](Cc2ccccc2)C(N)=O)[C@@H](C)O)[C@@H](C)CC)[C@@H](C)O)[C@@H](C)CC)[C@@H](C)CC)[C@@H](C)CC)NC(=O)[C@@H](Cc2ccccc2)NC1=O [Example 82] ({Malonyl(2,2-Me2,histaminyl)}-[Ala(1H-tetrazol-5-yl)]GSFSKE[Nle][dF]DILDLKAAKDFINWLIQTKITF-NH2; lactam 6-10 (inferred); C-terminus assumed)
98.1%	0.631 nM	103%	0.251 nM	CCCC[C@H](NC(=O)[C@H](CCC(=O)O)NC(=O)[C@H](CC(=O)O)NC(=O)[C@H](CO)NC(=O)[C@H](Cc1ccccc1)NC(=O)[C@H](CO)NC(=O)CNC(=O)[C@H](Cc1nn[nH]n1)NC(=O)C(C)(C)C(=O)NCCc1c[nH]cn1)C(=O)N[C@H](Cc1ccccc1)C(=O)N[C@H](C(=O)N[C@H](C(=O)N[C@@H](CC(C)C)C(=O)N[C@@H](CC(=O)O)C(=O)N[C@@H](CC(C)C)C(=O)N[C@@H](CCCCN)C(=O)N[C@@H](C)C(=O)N[C@@H](C)C(=O)N[C@@H](CCCCN)C(=O)N[C@@H](CC(=O)O)C(=O)N[C@@H](Cc1ccccc1)C(=O)N[C@H](C(=O)N[C@@H](CC(N)=O)C(=O)N[C@@H](Cc1c[nH]c2ccccc12)C(=O)N[C@@H](CC(C)C)C(=O)N[C@H](C(=O)N[C@@H](CCC(N)=O)C(=O)N[C@H](C(=O)N[C@H]1CCC(=O)NCCCC[C@@H](C(N)=O)NC(=O)[C@H]([C@@H](C)O)NC(=O)[C@H]([C@@H](C)CC)NC1=O)[C@@H](C)O)[C@@H](C)CC)[C@@H](C)CC)[C@@H](C)CC)[C@@H](C)O [Example 83] ({Malonyl(2,2-Me2,histaminyl)}-[Ala(1H-tetrazol-5-yl)]GSFSDE[Nle][dF]TILDLKAAKDFINWLIQTEITK-NH2; lactam 28-31 (inferred); C-terminus assumed)
95.2%	12.6 nM	103%	0.0316 nM	CCCC[C@@H]1NC(=O)[C@H](CCC(=O)O)NC(=O)[C@@H](NC(=O)[C@H](CO)NC(=O)[C@H](Cc2ccccc2)NC(=O)[C@H](CO)NC(=O)CNC(=O)[C@H](CC(=O)O)NC(=O)C(C)(C)NC(=O)[C@@H](N)Cc2c[nH]cn2)CCCCNC(=O)C[C@@H](C(=O)N[C@H](C(=O)N[C@@H](CC(C)C)C(=O)N[C@@H](CC(=O)O)C(=O)N[C@@H](CC(C)C)C(=O)N[C@@H](CCCCN)C(=O)N[C@@H](C)C(=O)N[C@@H](C)C(=O)N[C@@H](CCCCN)C(=O)N[C@@H](CC(=O)O)C(=O)N[C@@H](Cc2ccccc2)C(=O)N[C@H](C(=O)N[C@@H](CC(N)=O)C(=O)N[C@@H](Cc2c[nH]c3ccccc23)C(=O)N[C@@H](CC(C)C)C(=O)N[C@H](C(=O)N[C@@H](CCC(N)=O)C(=O)N[C@H](C(=O)N[C@@H](CCCCN)C(=O)N[C@H](C(=O)N[C@H](C(=O)N[C@@H](CC(=O)O)C(N)=O)[C@@H](C)O)[C@@H](C)CC)[C@@H](C)O)[C@@H](C)CC)[C@@H](C)CC)[C@@H](C)CC)NC(=O)[C@@H](Cc2ccccc2)NC1=O [Example 85] (H-H[Aib]DGSFSKE[Nle][dF]DILDLKAAKDFINWLIQTKITD-NH2; lactam 8-12; N-terminus and C-terminus assumed)
